According to patent US8367666B2 (priority 2004, dated 2013):

Tested on: respiratory function after cigarette smoke exposure
Experiment: Cigarette smoke exposure, deterioration of guinea pig's breath function (COPD model)
Assay type: in vivo, Hartley guinea pig
Conditions: 30 mg/kg a day, oral, Student t-test
Description: The main current smoke of a cigarette with a filter tip commercially available (Highlight, nicotine 1.4 mg content, and tar 17 mg content, Japan Tabaco Inc.) was exposed to the nose and the mouth of a Hartley guinea pig (obtained from Japan SLC Co., Ltd.) at the rate of 30 pieces of the cigarettes a day for five days a week during 30 days with a cigarette smoke exposure device for an animal (manufactured by […] Co., Ltd.). (Wright J L, Churg A. Cigarette smoke causes physiologic and morphologic changes of emphysema in the guinea pig Am. Rev. Respir. Dis. 1990 142:1422-8). […] After 16 to 24 hours had passed from the final cigarette smoke exposure, the trachea incision of the guinea pig was conducted under urethane ([…], i.p.) anesthesia, and a cannula was intubated and installed in a respiratory function measuring device system, a maneuver (manufactured by Baxco Co., Ltd.) for small animals. The respiratory function of the guinea pig was measured according to the protocol of the maneuver. In the medium administered control group and the medicine administered group, the amount of a functional residual air, the increase in the total lung capacity, and the decrease in the dynamic lung compliance by the cigarette smoke exposure were compared and the test of the significant difference was conducted. The data will be shown by the average±the standard deviation. […]

SMILES: COC(=O)C(NC(=O)c1cc2c(n(CC=O)c1=O)CCCCCC2)C(C)C (centres unmarked) [(1), methyl 3-methyl-2-{[2-oxo-1-(2-oxo-ethyl)-1,2,5,6,7,8,9,10-octahydro-cycloocta[b]pyridine-3-carbonyl]-amino}-butyrate]
- increase in the amount of a functional residual air by the cigarette smoke exposure, difference to medium group: significant difference of P<0.05
- increase in the total lung capacity by the cigarette smoke exposure, difference to medium group: significant difference of P<0.05
